According to ChEMBL document CHEMBL1135811, “4-(Phenylsulfonyl)piperidines: novel, selective, and bioavailable 5-HT(2A) receptor antagonists” (J Med Chem, 2002):

Key:
Type in all cases: ADME, organism-based
[1] = Mean residence time following intravenous dosing; settings: in vivo
[2] = Maximum blood concentration after oral dose 1 mg/kg; set-up: dose 1 mg/kg, route oral
[3] = Area under concentration-time curve for 0-4 hr after oral dose 1 mg/kg; set-up: time < 4 hr, dose 1 mg/kg, route oral; settings: in vivo
[4] = Bioavailability; settings: eutheria, in vivo
[5] = Area under concentration-time curve for 0-4 hr after oral dose of 10 mg/kg; set-up: time < 4 hr, dose 10 mg/kg, route oral; settings: in vivo
[6] = Maximum blood concentration after oral dose of 10 mg/kg; set-up: dose 10 mg/kg, route oral
[7] = Maximum blood concentration after oral dose of 2.0 mg/kg; set-up: dose 2 mg/kg, route oral
[8] = Area under concentration-time curve for 0-4 hr after oral dose of 2.0 mg/kg; set-up: time < 4 hr, dose 2 mg/kg, route oral; settings: in vivo
[9] = (§1) Area under concentration-time curve for 0-4 hr after oral dose of […]; set-up: time < 4 hr, dose 1.2 mg/kg, route oral; settings: in vivo
[10] = (§2) Maximum blood concentration after oral dose of […]; set-up: dose 1.2 mg/kg, route oral
[11] = as §2; set-up: dose 1.5 mg/kg, route oral
[12] = as §1; set-up: time < 4 hr, dose 1.5 mg/kg, route oral; settings: in vivo

Row | Structure (SMILES) | MRT [1] | Cmax [2] | AUC(0-t) at 4 h [3] | bioavailability [4] | other results
1 | O=S(=O)(c1ccccc1)C1CCN(CCc2ccc(F)cc2F)CC1 | 1 h | – | – | 2% | AUC(0-t) at 4 h [5]: 100 ng·h/mL; Cmax [6]: 23 ng/mL
2 | O=S1(=O)c2ccccc2CCC12CCN(CCc1ccc(F)cc1F)CC2 | – | – | – | – | Cmax [7]: 1 ng/mL; AUC(0-t) at 4 h [8]: 1 ng·h/mL
3 | COc1cccc([C@H](O)C2CCN(CCc3ccc(F)cc3)CC2)c1OC [VOLINANSERIN] | 1 h | – | – | 3% | AUC(0-t) at 4 h [9]: 8 ng·h/mL; Cmax [10]: 2 ng/mL
4 | O=C(CN1CCC(S(=O)(=O)c2ccccc2)CC1)c1ccc(F)cc1 | 0.7 h | 140 ng/mL | 171 ng·h/mL | 30% | –
5 | COc1ccc2c(c1)CCC1(CCN(CCc3ccc(F)cc3F)CC1)O2 | 1.5 h | – | – | – | Cmax [11]: 2 ng/mL; AUC(0-t) at 4 h [12]: 4 ng·h/mL
6 | OC1c2ccccc2CCC12CCN(CCc1ccccc1)CC2 (stereo unspecified) | – | – | – | – | Cmax [7]: 2 ng/mL; AUC(0-t) at 4 h [8]: 3 ng·h/mL

Second part, led by results:

Row | MRT [1] | Cmax [2] | AUC(0-t) at 4 h [3] | bioavailability [4] | Structure (SMILES) | other results
7 | 0.9 h | 70 ng/mL | 199 ng·h/mL | 22% | NC(=O)c1ccc(S(=O)(=O)C2CCN(CCc3ccc(F)cc3F)CC2)cc1 | –
8 | 2.3 h | 30 ng/mL | 177 ng·h/mL | 23% | N#Cc1ccc(S(=O)(=O)C2CCN(CCc3ccc(F)cc3F)CC2)cc1 | –
9 | 1.1 h | 38 ng/mL | 115 ng·h/mL | 24% | NC(=O)c1cccc(S(=O)(=O)C2CCN(CCc3ccc(F)cc3F)CC2)c1 | –
